ChEMBL document CHEMBL4229561, “Design, synthesis, and biological evaluation of selective and potent Carbazole-based butyrylcholinesterase inhibitors” (Bioorg Med Chem, 2018)
pIC50, pKi: −log10 of the molar value. Active and inactive are the calls of the source. No cut-off for these calls is given here.

What was measured:
Acetylcholinesterase = Acetylcholinesterase (Electrophorus electricus, UniProt O42275); assay: Inhibition of electric eel AChE using acetylthiocholine iodide as substrate preincubated for 10 mins followed by substrate addition measured for 5 mins by Ellman's method
Acetylcholinesterase, sequence (O42275 whole entry): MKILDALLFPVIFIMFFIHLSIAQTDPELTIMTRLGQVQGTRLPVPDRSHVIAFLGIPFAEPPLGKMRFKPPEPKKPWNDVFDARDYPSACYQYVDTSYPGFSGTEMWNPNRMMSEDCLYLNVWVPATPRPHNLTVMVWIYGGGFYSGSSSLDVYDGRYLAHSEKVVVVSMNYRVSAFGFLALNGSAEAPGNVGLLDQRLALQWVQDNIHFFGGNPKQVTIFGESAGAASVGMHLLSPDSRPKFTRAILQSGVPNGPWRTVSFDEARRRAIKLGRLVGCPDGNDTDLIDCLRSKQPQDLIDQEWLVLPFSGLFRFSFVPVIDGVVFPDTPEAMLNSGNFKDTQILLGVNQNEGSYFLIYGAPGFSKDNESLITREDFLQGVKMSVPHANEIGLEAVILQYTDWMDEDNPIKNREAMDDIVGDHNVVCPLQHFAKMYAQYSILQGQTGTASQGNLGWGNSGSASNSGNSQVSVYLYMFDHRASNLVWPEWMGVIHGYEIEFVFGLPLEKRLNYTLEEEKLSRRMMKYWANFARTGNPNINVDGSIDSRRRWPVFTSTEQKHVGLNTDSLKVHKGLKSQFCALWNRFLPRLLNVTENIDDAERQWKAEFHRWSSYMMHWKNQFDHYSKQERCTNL

Cholinesterase [1] = molecular target: T1, Cholinesterase (Equus caballus, UniProt P81908); assay: Inhibition of equine serum BuChE using butyrylthiocholine iodide as substrate preincubated for 10 mins followed by substrate addition measured for 5 mins by Ellman's method
T1 sequence (P81908 whole entry): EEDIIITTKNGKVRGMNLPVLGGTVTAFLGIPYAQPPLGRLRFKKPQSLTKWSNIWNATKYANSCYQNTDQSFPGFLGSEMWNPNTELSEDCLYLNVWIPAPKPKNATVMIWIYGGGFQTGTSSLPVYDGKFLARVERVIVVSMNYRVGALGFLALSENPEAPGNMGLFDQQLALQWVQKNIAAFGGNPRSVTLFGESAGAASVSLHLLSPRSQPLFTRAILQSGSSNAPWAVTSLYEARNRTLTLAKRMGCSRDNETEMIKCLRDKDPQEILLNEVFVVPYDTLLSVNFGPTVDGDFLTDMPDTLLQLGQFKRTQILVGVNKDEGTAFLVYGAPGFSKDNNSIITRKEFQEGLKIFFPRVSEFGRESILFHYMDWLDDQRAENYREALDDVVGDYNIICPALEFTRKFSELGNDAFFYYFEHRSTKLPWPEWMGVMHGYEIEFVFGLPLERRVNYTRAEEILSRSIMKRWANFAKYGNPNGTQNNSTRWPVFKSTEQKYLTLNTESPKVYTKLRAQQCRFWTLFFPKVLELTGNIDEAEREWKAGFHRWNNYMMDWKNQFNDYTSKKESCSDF

[2] = Selectivity index, ratio of IC50 for electric eel AChE to IC50 for equine serum BuChE
[3] = molecular target: Cholinesterase (Equus caballus) (UniProt P81908); assay: Potency index, ratio of donepezile IC50 to compound IC50 for inhibition of equine serum BuChE
Cholinesterase (Equus caballus), sequence (P81908 whole entry): as above

[4] = molecular target: Cholinesterase (Equus caballus) (UniProt P81908); assay: Potency index, ratio of galantamine IC50 to compound IC50 for inhibition of equine serum BuChE
[5] = molecular target: Amyloid-beta precursor protein (Homo sapiens) (UniProt P05067); assay: Inhibition of HFIP-pretreated amyloid beta (1 to 42) (unknown origin) self-induced aggregation at 10 uM after 48 hrs by thioflavin-T fluorescence assay relative to control
Amyloid-beta precursor protein (Homo sapiens), sequence (P05067 whole entry): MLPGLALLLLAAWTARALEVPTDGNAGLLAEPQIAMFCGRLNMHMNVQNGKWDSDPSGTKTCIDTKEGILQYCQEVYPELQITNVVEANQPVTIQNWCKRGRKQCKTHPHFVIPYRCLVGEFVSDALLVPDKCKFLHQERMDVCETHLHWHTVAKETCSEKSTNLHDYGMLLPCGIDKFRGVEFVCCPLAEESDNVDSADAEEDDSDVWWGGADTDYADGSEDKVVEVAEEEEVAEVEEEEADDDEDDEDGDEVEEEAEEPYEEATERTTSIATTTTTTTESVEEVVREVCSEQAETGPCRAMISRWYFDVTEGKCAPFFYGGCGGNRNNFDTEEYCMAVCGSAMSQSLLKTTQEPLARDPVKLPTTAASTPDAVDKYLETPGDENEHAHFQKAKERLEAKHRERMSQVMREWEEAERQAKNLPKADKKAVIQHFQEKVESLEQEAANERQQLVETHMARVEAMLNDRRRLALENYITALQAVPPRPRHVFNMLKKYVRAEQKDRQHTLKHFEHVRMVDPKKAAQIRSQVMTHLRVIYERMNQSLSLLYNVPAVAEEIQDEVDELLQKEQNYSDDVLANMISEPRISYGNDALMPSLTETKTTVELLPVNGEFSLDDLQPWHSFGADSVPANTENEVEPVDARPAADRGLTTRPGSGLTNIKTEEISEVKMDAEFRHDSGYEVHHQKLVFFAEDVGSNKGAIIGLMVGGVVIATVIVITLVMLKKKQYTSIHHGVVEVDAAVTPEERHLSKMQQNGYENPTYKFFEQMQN

Cholinesterase [6] = molecular target: T1, Cholinesterase; assay: Mixed-type inhibition of equine serum BuChE using varying levels of butyrylthiocholine iodide as substrate preincubated for 10 mins followed by substrate addition measured for 5 mins by Lineweaver-Burk plot analysis
PC-12 [7] = assay: Neuroprotection against H2O2-induced cell death in rat PC12 cells assessed as cell viability at 10 uM preincubated for 3 hrs followed by H2O2 addition measured after 12 hrs by MTT assay relative to control; assay type: functional; conditions: read-out: Activity
PC-12 [8] = assay: Neuroprotection against H2O2-induced cell death in rat PC12 cells assessed as increase in cell viability at 1 uM preincubated for 3 hrs followed by H2O2 addition measured after 12 hrs by MTT assay; assay type: functional, cell-based
PC-12 [9] = assay: Cytotoxicity against rat PC12 cells assessed as reduction in cell viability at 100 uM by MTT assay; assay type: cell-based; conditions: pc-12, 100 µM
Rattus norvegicus [10] = assay: Reversal of scopolamine-induced memory impairment in albino Wistar rat assessed as increase in time spent in target quadrant in probe day at 10 mg/kg, ip by Morris water maze test; assay type: functional, organism-based
Rattus norvegicus [11] = assay: Reversal of scopolamine-induced memory impairment in albino Wistar rat assessed as decrease in mean training period scape latency at 10 mg/kg, ip by Morris water maze test; assay type: functional, organism-based
Rattus norvegicus [12] = assay: Reversal of scopolamine-induced memory impairment in albino Wistar rat assessed as decrease in mean training period traveled distance to find platform at 10 mg/kg, ip by Morris water maze test; assay type: functional, organism-based
Rattus norvegicus [13] = assay: Reversal of scopolamine-induced memory impairment in albino Wistar rat assessed as effect on swimming speed at 5 to 20 mg/kg, ip by Morris water maze test; assay type: functional, organism-based
Rattus norvegicus [14] = assay: Reversal of scopolamine-induced memory impairment in albino Wistar rat assessed as increase in time spent in target quadrant in probe day at 2.5 mg/kg, ip by Morris water maze test; assay type: functional, organism-based
Rattus norvegicus [15] = assay: Reversal of scopolamine-induced memory impairment in albino Wistar rat assessed as decrease in mean training period traveled distance to find platform at 2.5 mg/kg, ip by Morris water maze test; assay type: functional, organism-based
Rattus norvegicus [16] = assay: Reversal of scopolamine-induced memory impairment in albino Wistar rat assessed as effect on swimming speed at 2.5 mg/kg, ip by Morris water maze test; assay type: functional, organism-based

Structure (SMILES) | pIC50 (Acetylcholinesterase) | pIC50 (Cholinesterase [1]) | Ratio IC50 [2] | other results
Fc1ccc(C[n+]2cccc(Cn3c4ccccc4c4ccccc43)c2)cc1 | 4.53 | 6.89 | 225 | 
Clc1cccc(C[n+]2cccc(Cn3c4ccccc4c4ccccc43)c2)c1 | 4.48 | 6.80 | 205 | 
Clc1ccc(C[n+]2cccc(Cn3c4ccccc4c4ccccc43)c2)cc1.[Cl-] | 4.70 | 7.14 | 274 | Ratio IC50 [3]: 4.8; Ratio IC50 [4]: 129; inhibition [5]: 49.9%; pKi (Cholinesterase [6]): 7.05; viability at 10 µM (PC-12 [7]): 66%; Activity (PC-12 [8]): inactive; Activity (PC-12 [9]): Toxic; Activity (Rattus norvegicus [10]): Active; Activity (Rattus norvegicus [11]): Active; Activity (Rattus norvegicus [12]): Active; Activity (Rattus norvegicus [13]): inactive
Cc1ccc(C[n+]2ccc(Cn3c4ccccc4c4ccccc43)cc2)cc1 | 4.81 | 6.09 | 19.3 | 
c1ccc(C[n+]2ccc(Cn3c4ccccc4c4ccccc43)cc2)cc1 | 4.89 | 6.24 | 22.1 | 
Fc1cccc(C[n+]2ccc(Cn3c4ccccc4c4ccccc43)cc2)c1 | 4.67 | 5.96 | 19.3 | 
Clc1ccccc1C[n+]1ccc(Cn2c3ccccc3c3ccccc32)cc1 | 5.17 | 6.23 | 11.5 | 
Clc1ccc(C[n+]2ccc(Cn3c4ccccc4c4ccccc43)cc2)cc1 | 4.72 | 5.80 | 11.9 | 
Fc1cccc(C[n+]2cccc(Cn3c4ccccc4c4ccccc43)c2)c1 | < 4.00 | 6.12 | > 133 | 
Cc1ccccc1C[n+]1ccc(Cn2c3ccccc3c3ccccc32)cc1 | 4.92 | 6.46 | 34 | 
Nc1c2c(nc3ccccc13)CCCC2 |  |  |  | inhibition [5]: 7.7%
Fc1ccccc1C[n+]1cccc(Cn2c3ccccc3c3ccccc32)c1 | < 4.00 | 6.43 | > 270 | 
c1ccc(C[n+]2cccc(Cn3c4ccccc4c4ccccc43)c2)cc1 | 4.21 | 6.57 | 229 | 
Clc1cccc(C[n+]2ccc(Cn3c4ccccc4c4ccccc43)cc2)c1 | 5.03 | 6.46 | 26.6 | 
COc1cc2c(cc1OC)C(=O)C(CC1CCN(Cc3ccccc3)CC1)C2 (stereo not given) |  |  |  | Activity (Rattus norvegicus [14]): Active; Activity (Rattus norvegicus [15]): Active; Activity (Rattus norvegicus [16]): inactive
Cc1cccc(C[n+]2ccc(Cn3c4ccccc4c4ccccc43)cc2)c1 | 4.76 | 6.14 | 24 | 
Cc1ccc(C[n+]2cccc(Cn3c4ccccc4c4ccccc43)c2)cc1 | 4.64 | 6.96 | 210 | 
Fc1ccc(C[n+]2ccc(Cn3c4ccccc4c4ccccc43)cc2)cc1 | 4.73 | 6.05 | 21.1 | 
Cc1ccccc1C[n+]1cccc(Cn2c3ccccc3c3ccccc32)c1 | 4.28 | 6.66 | 239 | 
Cc1cccc(C[n+]2cccc(Cn3c4ccccc4c4ccccc43)c2)c1 | 4.18 | 6.55 | 236 | 
Fc1ccccc1C[n+]1ccc(Cn2c3ccccc3c3ccccc32)cc1 | 4.90 | 6.17 | 18.9 | 
Clc1ccccc1C[n+]1cccc(Cn2c3ccccc3c3ccccc32)c1 | < 4.00 | 6.42 | > 263 | 
